# In ChEMBL document CHEMBL1150520, “Analogs of UK 14,304: Structural features responsible for 2 adrenoceptor activity” (Bioorg Med Chem Lett, 1995):
# Tests used:
# [1] = biological target: T1, Adrenergic receptor alpha-2 (Homo sapiens, UniProt P08913+P18825+P18089); experiment: Binding affinity for Alpha-2 adrenergic receptor of CHO-C10 membrane preparation; design: species or system Cricetulus griseus
# T1 sequence (P08913 whole entry): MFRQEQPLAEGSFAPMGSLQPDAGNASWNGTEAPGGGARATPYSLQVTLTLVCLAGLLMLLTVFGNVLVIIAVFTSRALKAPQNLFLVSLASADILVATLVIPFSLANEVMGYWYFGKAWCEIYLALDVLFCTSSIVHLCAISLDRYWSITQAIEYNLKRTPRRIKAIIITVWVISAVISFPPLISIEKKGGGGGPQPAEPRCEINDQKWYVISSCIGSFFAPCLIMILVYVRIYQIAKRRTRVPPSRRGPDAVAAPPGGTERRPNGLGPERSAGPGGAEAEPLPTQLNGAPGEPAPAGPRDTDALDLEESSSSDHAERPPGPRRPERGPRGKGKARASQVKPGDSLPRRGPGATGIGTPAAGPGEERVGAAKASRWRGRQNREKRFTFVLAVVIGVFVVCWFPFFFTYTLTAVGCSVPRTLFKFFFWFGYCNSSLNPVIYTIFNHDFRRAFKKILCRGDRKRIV
# T1 sequence (P18825 whole entry): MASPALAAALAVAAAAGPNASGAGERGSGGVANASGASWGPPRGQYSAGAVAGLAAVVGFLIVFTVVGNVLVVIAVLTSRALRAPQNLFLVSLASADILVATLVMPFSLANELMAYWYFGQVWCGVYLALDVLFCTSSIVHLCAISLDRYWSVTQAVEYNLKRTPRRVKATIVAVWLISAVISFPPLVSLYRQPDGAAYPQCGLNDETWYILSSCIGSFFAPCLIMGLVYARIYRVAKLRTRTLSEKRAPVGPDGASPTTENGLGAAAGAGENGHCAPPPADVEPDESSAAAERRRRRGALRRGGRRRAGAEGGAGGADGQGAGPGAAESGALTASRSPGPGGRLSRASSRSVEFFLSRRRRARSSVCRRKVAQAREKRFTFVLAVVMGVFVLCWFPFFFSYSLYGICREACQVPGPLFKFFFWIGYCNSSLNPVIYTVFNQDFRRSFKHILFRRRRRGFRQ
# T1 sequence (P18089 whole entry): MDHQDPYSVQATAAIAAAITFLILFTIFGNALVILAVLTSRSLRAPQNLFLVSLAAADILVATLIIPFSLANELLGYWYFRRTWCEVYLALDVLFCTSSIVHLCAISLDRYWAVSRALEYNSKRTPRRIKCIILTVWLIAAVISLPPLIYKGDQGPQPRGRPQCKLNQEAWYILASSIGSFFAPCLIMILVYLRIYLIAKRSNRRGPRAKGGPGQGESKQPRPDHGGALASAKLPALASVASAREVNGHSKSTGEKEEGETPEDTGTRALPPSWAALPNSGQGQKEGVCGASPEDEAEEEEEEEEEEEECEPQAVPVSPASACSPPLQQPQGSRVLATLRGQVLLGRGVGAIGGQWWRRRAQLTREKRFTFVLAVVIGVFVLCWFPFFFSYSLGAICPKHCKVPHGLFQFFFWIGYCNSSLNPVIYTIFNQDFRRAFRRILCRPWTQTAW
# [2] = biological target: T2, Adrenergic receptor alpha-1 (Homo sapiens, UniProt P35348+P25100+P35368); experiment: Binding affinity for Alpha-1 adrenergic receptor of human cerebral cortex membrane; assay type: tissue-based
# T2 sequence (P35348 whole entry): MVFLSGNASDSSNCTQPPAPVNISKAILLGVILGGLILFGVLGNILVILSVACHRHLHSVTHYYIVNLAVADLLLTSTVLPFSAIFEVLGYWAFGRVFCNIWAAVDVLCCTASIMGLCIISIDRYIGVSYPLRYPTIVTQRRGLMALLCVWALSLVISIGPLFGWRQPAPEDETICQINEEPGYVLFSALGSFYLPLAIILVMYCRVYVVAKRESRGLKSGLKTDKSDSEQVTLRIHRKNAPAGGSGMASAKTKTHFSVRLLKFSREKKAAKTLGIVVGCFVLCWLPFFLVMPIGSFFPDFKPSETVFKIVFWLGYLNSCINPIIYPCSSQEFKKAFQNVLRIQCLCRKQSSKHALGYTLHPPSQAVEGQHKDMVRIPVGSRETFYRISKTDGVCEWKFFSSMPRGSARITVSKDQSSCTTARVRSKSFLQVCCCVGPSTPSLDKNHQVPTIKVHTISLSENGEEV
# T2 sequence (P25100 whole entry): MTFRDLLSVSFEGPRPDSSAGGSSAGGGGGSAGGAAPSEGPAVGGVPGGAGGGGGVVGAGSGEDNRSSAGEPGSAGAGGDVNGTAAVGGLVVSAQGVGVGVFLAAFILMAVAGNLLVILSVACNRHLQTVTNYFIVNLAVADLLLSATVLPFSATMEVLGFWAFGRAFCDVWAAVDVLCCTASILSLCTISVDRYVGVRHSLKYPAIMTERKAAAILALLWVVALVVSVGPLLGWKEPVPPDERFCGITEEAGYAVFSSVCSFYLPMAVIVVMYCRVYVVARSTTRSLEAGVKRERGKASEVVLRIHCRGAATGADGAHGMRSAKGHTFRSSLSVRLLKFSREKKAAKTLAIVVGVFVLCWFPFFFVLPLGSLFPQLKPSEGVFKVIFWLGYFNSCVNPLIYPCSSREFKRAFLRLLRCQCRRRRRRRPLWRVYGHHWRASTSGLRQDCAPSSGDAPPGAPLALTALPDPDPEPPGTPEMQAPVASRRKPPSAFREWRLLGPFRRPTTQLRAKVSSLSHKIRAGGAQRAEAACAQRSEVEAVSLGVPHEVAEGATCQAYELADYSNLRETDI
# T2 sequence (P35368 whole entry): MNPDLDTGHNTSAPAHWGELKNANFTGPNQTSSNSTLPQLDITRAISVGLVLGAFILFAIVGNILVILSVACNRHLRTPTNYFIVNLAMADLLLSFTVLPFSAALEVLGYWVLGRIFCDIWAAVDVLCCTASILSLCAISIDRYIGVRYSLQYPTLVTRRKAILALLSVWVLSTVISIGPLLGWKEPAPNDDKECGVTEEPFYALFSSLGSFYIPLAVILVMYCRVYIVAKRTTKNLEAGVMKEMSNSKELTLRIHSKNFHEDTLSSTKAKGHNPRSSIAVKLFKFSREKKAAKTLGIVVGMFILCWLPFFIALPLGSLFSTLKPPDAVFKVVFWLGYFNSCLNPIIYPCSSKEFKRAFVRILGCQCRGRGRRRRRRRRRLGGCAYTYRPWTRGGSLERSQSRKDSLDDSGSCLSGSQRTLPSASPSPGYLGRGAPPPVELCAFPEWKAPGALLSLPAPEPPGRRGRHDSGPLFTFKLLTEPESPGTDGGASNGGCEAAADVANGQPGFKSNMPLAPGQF
compound,measurement,setting,value
Cc1c(NC2=NCCN2)ccc2c1NCCO2,Ki,[1],1.2 nM
N=C(N)Nc1ccc2nccnc2c1Br,Ki,[2],17000 nM
same,Ki,[1],41 nM
Cc1ccccc1N=C1NCCN1,Ki,[2],2500 nM
same,Ki,[1],7.8 nM
Cc1c(NC2=NCCN2)ccc2c1OCCO2,Ki,[2],130 nM
same,Ki,[1],0.25 nM
c1cnc2cc(NC3=NCCN3)ccc2n1,Ki,[1],41 nM
Cc1c(NC2=NCCN2)ccc2c1NCCN2,Ki,[2],8900 nM
same,Ki,[1],9.6 nM
C/N=C(\NC)Nc1ccc2nccnc2c1Br,Ki,[2],10000 nM
same,Ki,[1],5300 nM
COc1ccc(NC2=NCCN2)c(C)c1OC,Ki,[2],1500 nM
same,Ki,[1],5.2 nM
c1cc2c(cc1NC1=NCCN1)OCCO2,Ki,[2],2400 nM
CN(C1=NCCN1)c1ccc2c(c1)OCCO2,Ki,[2],30000 nM
same,Ki,[1],180 nM
